Consider 23 molecules from patent US10501482B2, “Compounds for treating spinal muscular atrophy” (Hoffmann-La Roche Inc., priority 2013, dated 2019).

In experiment [1] the test system is full length SMN2 minigene mRNA (FL SMN2mini) in HEK293H cells stably transfected with the SMN2-A minigene construct. Nature of the experiment: SMN2 minigene mRNA splicing RT-qPCR assay in cultured cells. Format: cell-based. Conditions: Homo sapiens, HEK293-H, 24 hours, 7-point concentration curve, concentration giving 1.5-fold FL SMN2mini mRNA vs vehicle, read-out: EC1.5x minigene (EC1.5x concentration for production of full length SMN2 minigene mRNA). The procedure, abridged:
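Stably transfected HEK293H cells, 10,000/well in DMEM/10% FBS with hygromycin, attached 6 h, then received compound for 24 h at 37° C in duplicate at 7 concentrations. Multiplex RT-qPCR with GAPDH used primers that detect only the minigene. An efficiency-corrected ΔΔCt, GAPDH- and vehicle-normalized, gave EC1.5x concentrations.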
On the technique in general: In qPCR the cycle at which signal appears reflects the starting amount.

Experiment [2] deals with SMN protein. Nature of the experiment: SMN protein assay (HTRF) in cultured SMA patient fibroblast cells. The experiment is classed as cell-based. The note with it: SMA Type 1 human fibroblasts GM03813, 48 hours; for EC1.5x SMN protein (EC1.5x concentration for SMN protein expression): 7-point concentration curve, concentration giving 1.5 times SMN protein vs vehicle; for max. fold increase (maximum fold increase of SMN protein): 7-point concentration data, fold vs vehicle control. An outline of the steps:
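SMA patient fibroblasts seeded at 5,000 cells/well, treated 48 h at 37 °C in triplicate per concentration (7-point series). Lysed in RIPA with protease inhibitors; SMN read by HTRF (anti-SMN d2/kryptate, overnight RT), 665/620 nm ratio. ΔF vs blank, expressed as fold over vehicle; EC1.5x and maximum fold increase derived.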

Where a name gives a salt, the structure may show the parent alone.

In the case of `Cc1cn2cc(NC(=O)c3ccc(N4CCN[C@@H](C)C4)cc3F)cc(F)c2n1` [Example 50, (S)-2-fluoro-N-(8-fluoro-2-methyl-imidazo[1,2-a]-pyridin-6-yl)-4-(3-methylpiperazin-1-yl)benzamide hydrochloride], the EC (1.5-fold) in experiment [1] turned out to be 0.0068 µM. For the same molecule, in experiment [2], the “EC1.5x SMN protein (EC1.5x concentration for SMN protein expression)” value (“EC1.5x SMN protein” for short) is 0.0344 µM and the “max. fold increase (maximum fold increase of SMN protein)” value (“max. fold increase” below) amounted to 1.6607.
The matching figures for `Cc1cn2cc(NC(=O)c3ccc(N4CCN[C@H](C)C4)cc3F)cc(F)c2n1` [Example 51, (R)-2-fIuoro-N-(8-fluoro-2-methyl-imidazo[1,2-a]-pyridin-6-yl)-4-(3-methylpiperazin-1-yl)benzamide hydrochloride]: 0.0084 µM, 0.0561 µM and 1.7266.
Regarding `Cc1nc2c(F)cc(NC(=O)c3ccc(N4CCNCC4)cc3F)cc2o1` [Example 58, 2-fluoro-N-(4-fluoro-2-methyl-benzo[d]oxazol-6-yl)-4-(piperazin-1-yl)benzamide], the EC (1.5-fold) in experiment [1] amounted to 0.0398 µM. Further, in experiment [2], the “EC1.5x SMN protein” value was 0.1159 µM and the “max. fold increase” value came to 1.7744.
In the case of `Cc1cn2cc(NC(=O)c3ccc(N4CCNCC4)cc3F)cc(C(F)(F)F)c2n1` [Example 59, 2-fluoro-N-(2-methyl-8-(trifluoromethyl)-imidazo[1,2-a]-pyridin-6-yl)-4-(piperazin-1-yl)-benzamide], in experiment [1], the EC (1.5-fold) is 0.109 µM. In addition, in experiment [2], the “EC1.5x SMN protein” value worked out at 0.2749 µM and the “max. fold increase” value came to 1.7116.
For `Cc1cn2cc(NC(=O)c3ccc(C4=CCNCC4)cc3F)ccc2n1` [Example 60, 2-fluoro-N-(2-methylimidazo[1,2-a]pyridin-6-yl)-4-(1,2,3,6-tetrahydro-pyridin-4-yl)-benzamide hydrochloride], the EC (1.5-fold) in experiment [1] amounted to 0.0428 µM. Moreover, in experiment [2], the “EC1.5x SMN protein” value is 0.107 µM and the “max. fold increase” value came to 1.7375.
For the molecule `Cc1cn2cc(NC(=O)c3ccc(C4=CCNCC4)cc3F)cc(F)c2n1` [Example 61, 2-fIuoro-N-(8-fluoro-2-methyl-imidazo[1,2-a]-pyridin-6-yl)-4-(1,2,3,6-tetra-hydropyridin-4-yl)benzamide hydrochloride], the EC (1.5-fold) in experiment [1] worked out at 0.01 µM. Moreover, the “max. fold increase” value in experiment [2] stood at 1.7077.
Regarding `Cc1cn2cc(NC(=O)c3ccc(C4=CCNCC4)nc3)cc(F)c2n1` [Example 62, N-(8-fluoro-2-methylimidazo[1,2-a]pyridin-6-yl)-6-(1,2,3,6-tetra-hydropyridin-4-yl)nicotinamide dihydrochloride], the EC (1.5-fold) in experiment [1] came out at 0.0136 µM. In addition, the “max. fold increase” value in experiment [2] stood at 1.5583.
Consider `Cc1cn2cc(NC(=O)c3ccc(C4=CCNCC4)cn3)ccc2n1` [Example 63, N-(2-methyl-imidazo[1,2-a]-pyridin-6-yl)-5-(1,2,3,6-tetra-hydropyridin-4-yl)picolinamide dihydrochloride], for which the EC (1.5-fold) in experiment [1] was 0.16 µM. Besides, in experiment [2], the “EC1.5x SMN protein” value worked out at 1.0431 µM and the “max. fold increase” value is given as 1.6807.
On to `COc1nc(N2CCNCC2)ccc1C(=O)Nc1cc(F)c2nc(C)cn2c1` [Example 64, N-(8-fluoro-2-methylimidazo[1,2-a]pyridin-6-yl)-2-methoxy-6-(piperazin-1-yl)nicotinamide], for which the EC (1.5-fold) in experiment [1] was found to be 0.0291 µM. In experiment [2], the “EC1.5x SMN protein” value is 0.1192 µM and the “max. fold increase” value turned out to be 1.7581.
For the molecule `Cc1cn2cc(NC(=O)c3ccc(N4CCNCC4)nc3F)cc(F)c2n1` [Example 65, 2-fIuoro-N-(8-fluoro-2-methylimidazo[1,2-a]pyridin-6-yl)-6-(piperazin-1-yl)-nicotinamide], the EC (1.5-fold) in experiment [1] was 0.0762 µM. In experiment [2], the “EC1.5x SMN protein” value came out at 0.1135 µM and the “max. fold increase” value worked out at 1.7675.
Take `Cc1cn2cc(NC(=O)c3ccc(N4CCNCC4)c(C)c3)cc(F)c2n1` [Example 66, N-(8-fluoro-2-methylimidazo[1,2-a]pyridin-6-yl)-3-methyl-4-(piperazin-1-yl)benzamide]: the EC (1.5-fold) in experiment [1] amounted to 0.518 µM. Further, in experiment [2], the “EC1.5x SMN protein” value turned out to be 0.6108 µM and the “max. fold increase” value is given as 1.5438.
With `Cc1cn2cc(NC(=O)c3cnc(N4CCNCC4)c(C)c3)cc(F)c2n1` [Example 67, N-(8-fluoro-2-methylimidazo[1,2-a]pyridin-6-yl)-5-methyl-6-(piperazin-1-yl)nicotinamide], the EC (1.5-fold) in experiment [1] was determined as 0.318 µM. Further, in experiment [2], the “EC1.5x SMN protein” value amounted to 0.866 µM and the “max. fold increase” value is recorded as 1.6552.
On the same counts, the results for `Cc1cn2cc(NC(=O)c3cnc(N4CCNCC4)cc3F)cc(F)c2n1` [Example 68, 4-fluoro-N-(8-fluoro-2-methylimidazo[1,2-a]pyridin-6-yl)-6-(piperazin-1-yl)nicotinamide] are 0.0285 µM, 0.057 µM and 1.6943.
On the same counts, the results for `COc1cc(N2CCNCC2)ncc1C(=O)Nc1cc(F)c2nc(C)cn2c1` [Example 69, N-(8-fluoro-2-methylimidazo[1,2-a]pyridin-6-yl)-4-methoxy-6-(piperazin-1-yl)nicotinamide] are 0.0308 µM, 0.1645 µM and 1.7612.
With `Cc1cn2cc(NC(=O)c3cnc(N4CCNCC4)cc3OCC(F)(F)F)cc(F)c2n1` [Example 71, N-(8-fluoro-2-methylimidazo[1,2-a]pyridin-6-yl)-6-(piperazin-1-yl)-4-(2,2,2-trifluoro-ethoxy)nicotinamide], the EC (1.5-fold) in experiment [1] worked out at 0.077 µM. Besides, in experiment [2], the “EC1.5x SMN protein” value is 0.4077 µM and the “max. fold increase” value turned out to be 1.4815.
Regarding `CCOc1nc(N2CCNCC2)ccc1C(=O)Nc1cc(F)c2nc(C)cn2c1` [Example 72, 2-ethoxy-N-(8-fluoro-2-methylimidazo[1,2-a]pyridin-6-yl)-6-(piperazin-1-yl)-nicotinamide], the EC (1.5-fold) in experiment [1] stood at 0.015 µM. In experiment [2], the “EC1.5x SMN protein” value turned out to be 0.1324 µM and the “max. fold increase” value is 1.7095.
For the molecule `Cc1cn2cc(NC(=O)c3ccc(N4CCNCC4)nc3OCC(F)(F)F)cc(F)c2n1` [Example 73, N-(8-fluoro-2-methylimidazo[1,2-a]pyridin-6-yl)-6-(piperazin-1-yl)-2-(2,2,2-trifluoro-ethoxy)nicotinamide], in experiment [1], the EC (1.5-fold) worked out at 0.062 µM. Further, in experiment [2], the “EC1.5x SMN protein” value came out at 0.7589 µM and the “max. fold increase” value came to 1.5775.
Turning to `COc1nc(N2CCNC(C)(C)C2)ccc1C(=O)Nc1cc(F)c2nc(C)cn2c1` [Example 75, 6-(3,3-dimethyl-piperazin-1-yl)-N-(8-fluoro-2-methyl-imidazo[1,2-a]-pyridin-6-yl)-2-methoxynicotinamide], in experiment [1], the EC (1.5-fold) stood at 0.0654 µM. In addition, in experiment [2], the “EC1.5x SMN protein” value amounted to 0.3061 µM and the “max. fold increase” value came to 1.7035.
As for `Cc1cn2cc(NC(=O)c3ccc(C4=CCNCC4)nc3)ccc2n1.Cl` [Example 77, N-(2-methylimidazo[1,2-a]pyridin-6-yl)-6-(1,2,3,6-tetrahydropyridin-4-yl)nicotinamide hydrochloride], the EC (1.5-fold) in experiment [1] worked out at 0.0641 µM. Also, in experiment [2], the “EC1.5x SMN protein” value was 0.2279 µM and the “max. fold increase” value is on record as 1.6649.
The matching figures for `Cc1cn2cc(NC(=O)c3ccc(C4CCN(C)CC4)nc3)ccc2n1` [Example 78, N-(2-methylimidazo[1,2-a]pyridin-6-yl)-6-(1-methylpiperidin-4-yl)nicotinamide]: 0.622 µM, 1.013 µM and 1.7897.
Consider `Cc1cn2cc(NC(=O)c3ccc(C4CCNCC4)nc3)cc(F)c2n1` [Example 79, N-(8-fluoro-2-methylimidazo[1,2-a]pyridin-6-yl)-6-(piperidin-4-yl)nicotinamide dihydrochloride], for which the EC (1.5-fold) in experiment [1] is 0.0559 µM. Moreover, in experiment [2], the “EC1.5x SMN protein” value was 0.2559 µM and the “max. fold increase” value is listed as 1.6574.
The matching figures for `Cc1cn2cc(NC(=O)c3ccc(C4CCN(C)CC4)nc3)cc(F)c2n1` [Example 80, N-(8-fluoro-2-methylimidazo[1,2-a]pyridin-6-yl)-6-(1-methylpiperidin-4-yl)nicotinamide]: 0.115 µM, 0.52 µM and 1.5928.
Take `Cc1cn2cc(NC(=O)c3ccc(C4CCNCC4)cc3F)cc(F)c2n1.Cl` [Example 81, 2-fluoro-N-(8-fluoro-2-methylimidazo[1,2-a]pyridin-6-yl)-4-(piperidin-4-yl)benzamide hydrochloride]: the EC (1.5-fold) in experiment [1] is 0.0374 µM. In addition, in experiment [2], the “EC1.5x SMN protein” value was 0.2723 µM and the “max. fold increase” value is on record as 1.6719.
